Four compounds from patent US10722520B2, “Heterocyclic compounds and their use in preventing or treating bacterial infections” (MUTABILIS, priority 2016, dated 2020) can be followed below.

Assay [1] has as its target KPC-2 (Klebsiella pneumoniae, UniProt Q9F663). The conditions noted are these: read-out: IC50 β-lactamase KPC-2; class (A); nitrocefin 200 μM, 30-min pre-incubation, enzyme 1 nM.
Assay [2] addresses OXA-48 (Klebsiella pneumoniae, UniProt Q6XEC0). To be noted: read-out: IC50 β-lactamase OXA-48; class (D); nitrocefin 200 μM, 30-min pre-incubation, enzyme 0.3 nM.
In assay [3] the target is CTX-M-15 (Escherichia coli, UniProt Q9EXV5). To be noted: read-out: IC50 β-lactamase CTX-M-15; class (A); nitrocefin 200 μM, 30-min pre-incubation, enzyme 0.4 nM.
Assay [4] concerns K. pneumoniae BAA-1898. The experiment in a line: MIC of ceftazidime (CAZ) at fixed concentration of compound (synergy), broth microdilution. It is filed as cell-based. The conditions noted are these: strain BAA-1898; MIC of CAZ, compound fixed at 4 μg/mL. The procedure:
(§1) Log phase bacterial suspensions were adjusted to a final density of 5×10^5 cfu/mL in cation-adjusted Mueller-Hinton broth (Becton-Dickinson) and added to each well (98 μL). Microplates were incubated for 16-20 h at 35° C. in ambient air. The MIC of the compounds was defined as the lowest concentration of said compounds that prevented bacterial growth as read by visual inspection.

The subject of assay [5] is K. pneumoniae 6299. The assay is described as above. It is filed as cell-based. To be noted: strain 6299; MIC of CAZ, compound fixed at 4 μg/mL. As for the experimental part:
as §1

For assay [6], the system named is E. coli 190317. Described as above. The conditions noted are these: strain 190317; MIC of CAZ, compound fixed at 4 μg/mL. The format is cell-based. The procedure:
as §1

The subject of assay [7] is P. aeruginosa CIP107051. The assay is described as above. It is filed as cell-based. The conditions noted are these: strain CIP107051; MIC of CAZ, compound fixed at 4 μg/mL. As for the experimental part: as §1
Assay [8] has as its system E. cloacae P99. The assay is described as above. The format is cell-based. To be noted: strain P99; MIC of CAZ, compound fixed at 4 μg/mL. As for the experimental part:
as §1

The target in assay [9] is OXA-15 (Pseudomonas aeruginosa, UniProt Q51574). The conditions noted are these: read-out: IC50 β-lactamase OXA-15; class (D); nitrocefin 200 μM, 30-min pre-incubation, enzyme 0.4 nM.
Assay [10] addresses OXA-11 (Pseudomonas aeruginosa, UniProt Q06778). To be noted: read-out: IC50 β-lactamase OXA-11; class (D); nitrocefin 200 μM, 30-min pre-incubation, enzyme 1.2 nM.
In assay [11] the target is TEM-1 (Escherichia coli, UniProt P62593). To be noted: read-out: IC50 β-lactamase TEM-1; class (A); nitrocefin 200 μM, 30-min pre-incubation, enzyme 0.1 nM.
Assay [12] relates to K. pneumoniae BAA-1898. Briefly: MIC of compound alone, broth microdilution. The format is cell-based. To be noted: strain BAA-1898; compound alone. In short, it runs like this: (§2)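 Step one, log-phase suspension set to 5×10^5 cfu/mL final in CA-MHB. Step two, incubation at 35° C under ambient air for 16-20 h. Step three, visual reading of the lowest growth-free concentration as MIC.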

For assay [13], the system named is K. pneumoniae 6299. The experiment in a line: MIC of compound alone, broth microdilution. It is filed as cell-based. To be noted: strain 6299; compound alone. The procedure, abridged:
as §2

Assay [14] relates to E. coli 190317. The experiment in a line: MIC of compound alone, broth microdilution. It is filed as cell-based. The conditions noted are these: strain 190317; compound alone. In short, it runs like this: as §2
In assay [15] the test system is P. aeruginosa CIP107051. The experiment in a line: MIC of compound alone, broth microdilution. To be noted: strain CIP107051; compound alone. The format is cell-based. The procedure, abridged:
as §2

Assay [16] has as its system E. cloacae P99. The experiment in a line: MIC of compound alone, broth microdilution. It is filed as cell-based. The conditions noted are these: strain P99; compound alone. The procedure, abridged: as §2
For assay [17], the target named is OXA-1 (Escherichia coli, UniProt P13661). To be noted: read-out: IC50 β-lactamase OXA-1; class (D); nitrocefin 200 μM, 30-min pre-incubation, enzyme 0.2 nM.
Assay [18] concerns the target SHV-1 (Klebsiella pneumoniae, UniProt P0AD64). The conditions noted are these: read-out: IC50 β-lactamase SHV-1; class (A); nitrocefin 200 μM, 30-min pre-incubation, enzyme 0.075 nM.
Assay [19] deals with AmpC (P99) (Enterobacter cloacae, UniProt P05364). The conditions noted are these: read-out: IC50 β-lactamase AmpC (P99); class (C); nitrocefin 200 μM, 30-min pre-incubation, enzyme 0.2 nM.
Assay [20] addresses CMY-37 (Citrobacter freundii, UniProt P05193). To be noted: read-out: IC50 β-lactamase CMY-37; class (C); nitrocefin 200 μM, 30-min pre-incubation, enzyme 0.2 nM.
Assay [21] deals with AmpC (PAE) (Pseudomonas aeruginosa, UniProt P24735). The conditions noted are these: read-out: IC50 β-lactamase AmpC (PAE); class (C); nitrocefin 200 μM, 30-min pre-incubation, enzyme 0.4 nM.

For `NCCONC(=O)c1cnn(C2=CC3CN(C2)C(=O)N3OS(=O)(=O)[O-])c1.O=C(O)C(F)(F)F.[Na+]` (stereo not drawn) [Example 24, sodium and 2,2,2-trifluoroacetate [7-oxo-3-[4-carboxamide,N-(2-ammoniumethoxy)-pyrazol-1-yl]-1,6-diazabicyclo[3.2.1]oct-3-en-6-yl]sulfate], the IC50 in assay [1] was determined as 5.2 nM; in [2], 4.6 nM; in [3], 0.75 nM; in assay [9], 48 nM; in [10], 95 nM; in assay [11], 0.37 nM. Moreover, the IC50 in assay [17] amounted to 76 nM; in assay [18], 2.4 nM; in assay [19] it was 12 nM; in [20], 16 nM; in assay [21], 160 nM. The “MIC combination of CAZ and compounds of the invention at 4 μg/mL” value (shortened to “MIC combination”) in [4] is 1 µg/mL; in [5], 0.25 µg/mL; in [6], less than 0.25 µg/mL; in assay [7] it was 4 µg/mL; in assay [8], 0.25 µg/mL. The “MIC compounds of the invention alone” value in assay [12] was greater than 32 µg/mL; in assay [13], greater than 32 µg/mL; in [14], 2 µg/mL; in [15], greater than 32 µg/mL; in assay [16], 16 µg/mL.

In the case of `NC(=O)c1nn(C2=CC3CN(C2)C(=O)N3OS(=O)(=O)[O-])cc1F.[Na+]` (stereo not drawn) [Example 26, sodium (7-oxo-3-(3-carboxamide-4-fluoro-pyrazol-1-yl)-1,6-diazabicyclo[3.2.1]oct-3-en-6-yl) sulfate], the half-inhibitory concentration (IC50) in assay [1] amounted to 3.2 nM; in assay [2], 7.8 nM; in assay [3], 0.72 nM; in assay [9], 13 nM; in assay [10], 9.8 nM; in assay [11] it was 0.23 nM. For the same compound, the IC50 in [17] came to 33 nM; in assay [18], 1.2 nM; in assay [19] it was 14 nM; in [20], 36 nM; in assay [21], 130 nM. In addition, the “MIC combination” value in assay [4] was 0.5 µg/mL; in assay [5], no more than 0.25 µg/mL; in [6], less than 0.25 µg/mL; in assay [7], 4 µg/mL; in assay [8], 1 µg/mL. For the same compound, the “MIC compounds of the invention alone” value was 16 µg/mL in assay [12]; 16 µg/mL in assay [13]; 4 µg/mL in assay [14]; greater than 32 µg/mL in [15]; 16 µg/mL in assay [16].

Turning to `NC(=O)c1cc(F)n(C2=CC3CN(C2)C(=O)N3OS(=O)(=O)[O-])n1.[Na+]` (stereo not drawn) [Example 30, sodium (7-oxo-3-(3-carboxamide-5-fluoro-pyrazol-1-yl)-1,6-diazabicyclo[3.2.1]oct-3-en-6-yl) sulfate], the IC50 came to 5.3 nM in [1]; 36 nM in [2]; 1 nM in assay [3]; 170 nM in assay [9]; 29 nM in assay [10]; 0.33 nM in assay [11]. Besides, the IC50 came out at 350 nM in assay [17]; 2.7 nM in assay [18]; 28 nM in assay [19]; 99 nM in [20]; 370 nM in assay [21]. Besides, the “MIC combination” value was found to be 2 µg/mL in assay [4]; 1 µg/mL in assay [5]; 0.25 µg/mL in [6]; 16 µg/mL in assay [7]; 8 µg/mL in [8]. The “MIC compounds of the invention alone” value in [12] was greater than 32 µg/mL; in assay [13], greater than 32 µg/mL; in assay [14], 32 µg/mL; in assay [15], greater than 32 µg/mL; in assay [16] it was greater than 32 µg/mL.

`CC(=O)Nc1ccn(C2=CC3CN(C2)C(=O)N3OS(=O)(=O)O)n1.CCN(CC)CC` (stereo not drawn) [Example 33, triethylammonium {[3-(N-acetamido)pyrazol-1-yl]-7-oxo-1,6-diazabicyclo[3.2.1]oct-3-en-6-yl}sulfate]: the IC50 was 11 nM in [1]; 3.1 nM in assay [2]; 0.72 nM in assay [3]; 44 nM in [9]; 8.4 nM in assay [10]; 0.67 nM in assay [11]. Besides, the IC50 in assay [17] was determined as 68 nM; in assay [18] it was 1.7 nM; in assay [19] it was 7.1 nM; in assay [20], 3.2 nM; in [21] it was 32 nM. The “MIC combination” value in assay [4] was 16 µg/mL; in [5], 0.25 µg/mL; in assay [6], no more than 0.25 µg/mL; in assay [7], 8 µg/mL; in assay [8] it was 1 µg/mL. The “MIC compounds of the invention alone” value in [12] was 32 µg/mL; in assay [13], 32 µg/mL; in assay [14], 8 µg/mL; in assay [15] it was greater than 32 µg/mL; in assay [16], 16 µg/mL.
